Reference: doi:10.1101/2024.08.19.608619, “Discovery of potent SARS-CoV-2 nsp3 macrodomain inhibitors uncovers lack of translation to cellular antiviral response” (bioRxiv, 2024)
Values after ≈ are worked out from the molar mass of the structure shown. Values joined by “and” are separate entries in the source; they are usually repeats but may differ in a detail not shown here. Equal entries are not always repeated. Where two headings read alike, the source gives them in different places.

Legend:
CHK1(h) = target: T1, CHK1(h) (Homo sapiens, UniProt O14757); assay: biochemical; set-up: In vitro kinase panel profiling, per cent remaining kinase activity at 10 uM; details: atp_concentration=90, read-out: % of control remaining
T1 construct: gene CHEK1
T1 sequence (O14757 1-476): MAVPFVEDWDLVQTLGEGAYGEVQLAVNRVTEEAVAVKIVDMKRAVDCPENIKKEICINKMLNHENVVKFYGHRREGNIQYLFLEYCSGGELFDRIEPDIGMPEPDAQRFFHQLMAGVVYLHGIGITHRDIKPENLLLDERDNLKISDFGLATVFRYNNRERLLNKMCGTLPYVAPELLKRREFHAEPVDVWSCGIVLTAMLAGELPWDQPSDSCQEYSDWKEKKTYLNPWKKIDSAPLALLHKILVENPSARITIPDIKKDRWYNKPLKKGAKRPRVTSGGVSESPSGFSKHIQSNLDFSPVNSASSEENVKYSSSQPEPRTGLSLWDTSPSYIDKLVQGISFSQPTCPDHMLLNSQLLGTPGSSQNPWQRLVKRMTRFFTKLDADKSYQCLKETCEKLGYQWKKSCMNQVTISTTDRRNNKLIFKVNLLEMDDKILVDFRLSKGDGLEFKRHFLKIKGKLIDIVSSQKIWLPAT
From the text: (§1) We derisk potential for off-target activity by profiling the compound in a CEREP panel, a standard secondary pharmacology assessment, as well as a kinase panel to derisk a potential hinge-binding motif in our leads, and a PARP panel to derisk activity against human […]. Reassuringly, the compounds are selective, with the only off-targets being moderate human CHRM2 and KOR receptors activity associated with ASAP-0011198.

EphB4(h) = target: T2, EphB4(h) (Homo sapiens, UniProt P54760); assay: biochemical; set-up: In vitro kinase panel profiling, per cent remaining kinase activity at 10 uM; details: atp_concentration=10, read-out: % of control remaining
T2 sequence (P54760 1-987): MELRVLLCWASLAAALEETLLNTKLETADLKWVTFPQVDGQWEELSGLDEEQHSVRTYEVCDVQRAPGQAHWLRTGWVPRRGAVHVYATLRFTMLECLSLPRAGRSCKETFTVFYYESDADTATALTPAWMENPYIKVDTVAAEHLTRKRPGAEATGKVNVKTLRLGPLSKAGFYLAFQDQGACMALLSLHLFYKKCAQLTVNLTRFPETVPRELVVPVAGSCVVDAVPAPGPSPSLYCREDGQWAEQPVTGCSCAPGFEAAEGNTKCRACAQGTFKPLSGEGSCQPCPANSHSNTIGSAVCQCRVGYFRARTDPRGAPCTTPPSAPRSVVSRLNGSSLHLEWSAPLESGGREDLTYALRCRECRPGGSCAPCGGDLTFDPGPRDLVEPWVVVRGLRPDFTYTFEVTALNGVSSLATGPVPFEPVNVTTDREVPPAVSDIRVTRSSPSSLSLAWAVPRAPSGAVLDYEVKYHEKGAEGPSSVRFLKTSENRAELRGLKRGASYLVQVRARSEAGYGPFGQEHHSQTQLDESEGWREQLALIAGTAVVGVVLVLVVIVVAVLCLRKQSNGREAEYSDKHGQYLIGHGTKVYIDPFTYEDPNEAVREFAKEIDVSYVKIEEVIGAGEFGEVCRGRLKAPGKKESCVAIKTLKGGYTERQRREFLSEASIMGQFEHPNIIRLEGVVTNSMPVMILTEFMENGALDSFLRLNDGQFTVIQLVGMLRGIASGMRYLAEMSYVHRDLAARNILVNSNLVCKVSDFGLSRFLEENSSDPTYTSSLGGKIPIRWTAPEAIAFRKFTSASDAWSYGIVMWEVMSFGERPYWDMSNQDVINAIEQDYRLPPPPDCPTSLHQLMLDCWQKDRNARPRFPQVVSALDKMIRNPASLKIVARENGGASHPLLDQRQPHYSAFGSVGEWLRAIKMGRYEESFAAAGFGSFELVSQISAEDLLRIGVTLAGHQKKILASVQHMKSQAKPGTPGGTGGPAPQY
From the text: as §1

IKKα(h) = target: T3, IKKα(h) (Homo sapiens, UniProt O15111); assay: biochemical; set-up: In vitro kinase panel profiling, per cent remaining kinase activity at 10 uM; details: atp_concentration=10, read-out: % of control remaining
T3 construct: gene CHUK
T3 sequence (O15111 1-745): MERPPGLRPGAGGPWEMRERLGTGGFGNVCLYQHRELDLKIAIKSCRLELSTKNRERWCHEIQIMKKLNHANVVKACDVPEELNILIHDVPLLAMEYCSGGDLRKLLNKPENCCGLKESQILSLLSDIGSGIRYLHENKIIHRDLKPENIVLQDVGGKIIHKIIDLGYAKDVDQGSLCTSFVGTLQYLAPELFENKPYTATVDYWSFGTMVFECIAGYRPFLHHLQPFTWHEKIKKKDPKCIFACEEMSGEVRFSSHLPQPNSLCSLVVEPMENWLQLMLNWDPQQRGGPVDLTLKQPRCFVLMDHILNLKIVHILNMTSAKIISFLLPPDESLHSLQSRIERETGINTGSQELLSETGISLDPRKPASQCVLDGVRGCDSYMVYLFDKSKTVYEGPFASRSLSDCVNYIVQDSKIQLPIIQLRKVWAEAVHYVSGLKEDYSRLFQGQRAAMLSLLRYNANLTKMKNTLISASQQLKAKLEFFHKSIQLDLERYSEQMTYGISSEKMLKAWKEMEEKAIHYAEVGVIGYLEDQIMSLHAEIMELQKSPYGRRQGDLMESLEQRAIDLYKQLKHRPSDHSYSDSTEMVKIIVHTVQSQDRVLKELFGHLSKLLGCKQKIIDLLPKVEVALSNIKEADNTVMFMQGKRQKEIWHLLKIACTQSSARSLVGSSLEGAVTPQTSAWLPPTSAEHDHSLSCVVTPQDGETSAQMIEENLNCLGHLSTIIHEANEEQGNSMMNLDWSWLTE
From the text: as §1

Rsk1(h) = target: T4, Rsk1(h) (Homo sapiens, UniProt Q15418); assay: biochemical; set-up: In vitro kinase panel profiling, per cent remaining kinase activity at 10 uM; details: atp_concentration=45, read-out: % of control remaining
T4 construct: gene RPS6KA1
From the text: as §1

[1] = In vitro kinetic solubility; details: for solubility_mean: In vitro kinetic solubility, ph 7.4; for solubility: pH 7.4
[2] = Permeability Papp (AB) MDR1/MDCKII; details: for papp_a_to_b_mean / papp_b_to_a_mean / perc_recovery_a_to_b_mean / perc_recovery_b_to_a_mean / efflux_ratio: In vitro MDR1-MDCKII permeability; for papp_a_to_b_mean / Papp A→B: A to B; for papp_b_to_a_mean: B to A; for perc_recovery_a_to_b_mean / perc_recovery_a_to_b_inhibitor_mean: recovery A to B; for perc_recovery_b_to_a_mean / perc_recovery_b_to_a_inhibitor_mean: recovery B to A; for perc_recovery_a_to_b_inhibitor_mean / perc_recovery_b_to_a_inhibitor_mean: MDR1-MDCKII; for Papp A→B: dog, MDCK-MDR1, Papp (AB) MDR1/MDCKII

T4 sequence (Q15418 whole entry): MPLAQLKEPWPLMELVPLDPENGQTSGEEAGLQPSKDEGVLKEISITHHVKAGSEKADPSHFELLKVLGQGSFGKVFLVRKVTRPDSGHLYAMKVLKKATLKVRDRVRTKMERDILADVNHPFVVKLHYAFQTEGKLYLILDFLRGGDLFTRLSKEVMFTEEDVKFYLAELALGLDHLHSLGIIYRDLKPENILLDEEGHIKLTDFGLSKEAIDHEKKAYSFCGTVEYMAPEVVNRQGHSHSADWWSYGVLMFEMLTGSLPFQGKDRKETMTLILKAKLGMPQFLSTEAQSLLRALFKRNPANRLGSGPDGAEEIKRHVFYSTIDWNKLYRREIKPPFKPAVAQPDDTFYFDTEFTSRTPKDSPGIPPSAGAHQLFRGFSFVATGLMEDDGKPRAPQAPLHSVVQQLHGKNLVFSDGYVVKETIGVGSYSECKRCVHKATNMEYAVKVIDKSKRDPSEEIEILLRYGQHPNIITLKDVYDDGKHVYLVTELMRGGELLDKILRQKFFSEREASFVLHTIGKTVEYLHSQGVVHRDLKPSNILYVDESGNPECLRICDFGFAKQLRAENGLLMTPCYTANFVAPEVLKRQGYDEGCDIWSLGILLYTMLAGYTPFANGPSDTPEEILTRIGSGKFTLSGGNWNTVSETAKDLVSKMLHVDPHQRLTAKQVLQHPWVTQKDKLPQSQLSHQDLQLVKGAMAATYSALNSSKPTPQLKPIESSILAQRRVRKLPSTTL

## CNCc1cc(-c2cc3c(N[C@@H](c4ccc5c(c4)S(=O)(=O)CCC5)C(C)C)ncnc3[nH]2)co1 [ASAP-0011176]
LogD; pH 7.4, In vitro LogD
  logd: 2.2
CHK1(h); batch_name=ASAP-0011176-002
  remaining activity at 10 µM: 111%
EphB4(h); batch_name=ASAP-0011176-002
  remaining activity at 10 µM: 92%
IKKα(h); batch_name=ASAP-0011176-002
  remaining activity at 10 µM: 79%
Rsk1(h); batch_name=ASAP-0011176-002
  remaining activity at 10 µM: 90%
[1]
  solubility_mean: 345 µM (≈ 165 µg/mL)
[2]; mean
  papp_a_to_b_mean: 2.61 ×10⁻⁶ cm/s
  perc_recovery_a_to_b_mean: 78.9%
[2]; no inhibitor
  papp_a_to_b_mean: 0.0775 ×10⁻⁶ cm/s and 0.0947 ×10⁻⁶ cm/s
  papp_b_to_a_mean: 0.15 ×10⁻⁶ cm/s and 0.137 ×10⁻⁶ cm/s
  perc_recovery_a_to_b_mean: 64.8% and 63.4%
  perc_recovery_b_to_a_mean: 60.4% and 68.7%
[2]; with inhibitor Cyclosporin A
  perc_recovery_a_to_b_inhibitor_mean: 78.6%
  perc_recovery_b_to_a_inhibitor_mean: 83.0%
[2]; with inhibitor Verapamil
  perc_recovery_a_to_b_inhibitor_mean: 67.3%
  perc_recovery_b_to_a_inhibitor_mean: 62.0%

## CC(C)C(Nc1ncnc2[nH]c(C(=O)NC3CCN(C)C3)cc12)c1ccc2c(c1)S(=O)(=O)CCC2 (stereo not shown) [ASAP-0011198]
LogD
  logd: 1.6
LogD; pH 7.4
  logd: 1.6
CHK1(h); batch_name=ASAP-0011198-002
  remaining activity at 10 µM: 118%
EphB4(h); batch_name=ASAP-0011198-002
  remaining activity at 10 µM: 86%
IKKα(h); batch_name=ASAP-0011198-002
  remaining activity at 10 µM: 82%
Rsk1(h); batch_name=ASAP-0011198-002
  remaining activity at 10 µM: 94%
[1]
  solubility kinetic: 392 µM (≈ 195 µg/mL)
  solubility: 392 µM (≈ 195 µg/mL)
[2]; no inhibitor
  papp_a_to_b_mean: 0.0631 ×10⁻⁶ cm/s
  papp_b_to_a_mean: 0.0474 ×10⁻⁶ cm/s
  perc_recovery_a_to_b_mean: 86.2% and 71.8%
  perc_recovery_b_to_a_mean: 93.1% and 82.5%
[2]; mean
  perc_recovery_a_to_b_mean: 94.6%
[2]; with inhibitor Cyclosporin A
  perc_recovery_a_to_b_inhibitor_mean: 100.0% and 74.6%
  perc_recovery_b_to_a_inhibitor_mean: 100.0% and 87.0%
[2]
  Papp A→B: 2.9 ×10⁻⁶ cm/s

## Cn1ncc(-c2cc3c(N[C@@H](c4ccc5c(n4)OCCO5)C(C)(C)C)ncnc3[nH]2)c1C#N [ASAP-0011221]
LogD; pH 7.4, In vitro LogD
  logd: 3.3
CHK1(h); batch_name=ASAP-0011221-002
  remaining activity at 10 µM: 125%
EphB4(h); batch_name=ASAP-0011221-002
  remaining activity at 10 µM: 115%
IKKα(h); batch_name=ASAP-0011221-002
  remaining activity at 10 µM: 125%
Rsk1(h); batch_name=ASAP-0011221-002
  remaining activity at 10 µM: 136%
[1]
  solubility_mean: 24 µM (≈ 10.7 µg/mL)
[2]; mean
  papp_a_to_b_mean: 14.0 ×10⁻⁶ cm/s
  perc_recovery_a_to_b_mean: 84.8%
[2]; no inhibitor
  papp_a_to_b_mean: 2.76 ×10⁻⁶ cm/s
  papp_b_to_a_mean: 5.51 ×10⁻⁶ cm/s
  perc_recovery_a_to_b_mean: 94.8%
  perc_recovery_b_to_a_mean: 101.0%
[2]; with inhibitor Cyclosporin A
  perc_recovery_a_to_b_inhibitor_mean: 61.6%
  perc_recovery_b_to_a_inhibitor_mean: 62.4%

## Cc1nn(C)cc1-c1cc2c(NC(c3ccc4c(c3)S(=O)(=O)CCC4)C(C)C)ncnc2[nH]1 (stereo not shown) [ASAP-0011446]
LogD
  logd: 3.1
LogD; pH 7.4
  logd: 3.1
CHK1(h); batch_name=ASAP-0011446-002
  remaining activity at 10 µM: 102%
EphB4(h); batch_name=ASAP-0011446-002
  remaining activity at 10 µM: 98%
IKKα(h); batch_name=ASAP-0011446-002
  remaining activity at 10 µM: 94%
Rsk1(h); batch_name=ASAP-0011446-002
  remaining activity at 10 µM: 110%
[1]
  solubility kinetic: 65 µM (≈ 30.2 µg/mL)
  solubility: 65 µM (≈ 30.2 µg/mL)
[2]; mean
  papp_a_to_b_mean: 4.36 ×10⁻⁶ cm/s
  perc_recovery_a_to_b_mean: 77.0%
[2]; no inhibitor
  perc_recovery_a_to_b_mean: 69.7%
  perc_recovery_b_to_a_mean: 63.5%
[2]; with inhibitor Verapamil
  perc_recovery_a_to_b_inhibitor_mean: 87.7%
  perc_recovery_b_to_a_inhibitor_mean: 93.0%
[2]
  Papp A→B: 4.4 ×10⁻⁶ cm/s

## C[C@H](C(=O)O)[C@@H](NC(=O)c1ncnc2[nH]ccc12)c1ccc(Br)cc1 [ASAP-0014722]
LogD; pH 7.4, In vitro LogD
  logd: 0.6
CHK1(h); batch_name=ASAP-0014722-002
  remaining activity at 10 µM: 99%
EphB4(h); batch_name=ASAP-0014722-002
  remaining activity at 10 µM: 105%
IKKα(h); batch_name=ASAP-0014722-002
  remaining activity at 10 µM: 99%
Rsk1(h); batch_name=ASAP-0014722-002
  remaining activity at 10 µM: 88%
[1]
  solubility_mean: 358 µM (≈ 144 µg/mL)
[2]; no inhibitor
  papp_b_to_a_mean: 0.274 ×10⁻⁶ cm/s
  efflux_ratio: 8.67
  perc_recovery_a_to_b_mean: 89.1% and 77.4%
  perc_recovery_b_to_a_mean: 87.2%
[2]; with inhibitor Cyclosporin A
  perc_recovery_a_to_b_inhibitor_mean: 80.9%
  perc_recovery_b_to_a_inhibitor_mean: 84.1%

## COc1ccc([C@H](Cc2nnn[nH]2)NC(=O)c2ncnc3[nH]ccc23)cc1 [ASAP-0015381]
LogD; pH 7.4, In vitro LogD
  logd: -0.5
CHK1(h); batch_name=ASAP-0015381-001
  remaining activity at 10 µM: 110%
EphB4(h); batch_name=ASAP-0015381-001
  remaining activity at 10 µM: 106%
IKKα(h); batch_name=ASAP-0015381-001
  remaining activity at 10 µM: 98%
Rsk1(h); batch_name=ASAP-0015381-001
  remaining activity at 10 µM: 102%
[1]
  solubility_mean: 367 µM (≈ 134 µg/mL)
[2]; no inhibitor
  papp_b_to_a_mean: 0.021 ×10⁻⁶ cm/s
  efflux_ratio: 0.67
  perc_recovery_a_to_b_mean: 87.0% and 68.4%
  perc_recovery_b_to_a_mean: 84.4%
[2]; with inhibitor Cyclosporin A
  perc_recovery_a_to_b_inhibitor_mean: 83.1%
  perc_recovery_b_to_a_inhibitor_mean: 85.5%
